From PMC3350394, “Kinetic analysis and test-retest variability of the radioligand [^11C](R)-PK11195 binding to TSPO in the human brain - a PET study in control subjects” (EJNMMI Research, 2012)
Where “and” joins values, the source holds several entries; their conditions need not be identical. Equal entries are not always repeated.

Molecular target: TSPO (Homo sapiens, UniProt P30536)
Assay: PET, kinetic compartment analysis (1TCM, 2TCM) with metabolite-corrected arterial input function
Conditions: for BPND (k3/k4) Mean: mean of test and retest; for BPND (k3/k4) Retest / BPND (k3/k4) Test / VT (2TCM): mean(SD); for BPND (k3/k4) Retest / BPND (k3/k4) Test: 6 subjects; for ICC: BPND test-retest
Method: Each subject was placed recumbent with the head in the PET system. A head fixation system with an individual plaster helmet was used. A cannula was inserted into the left radial artery and another into the right antecubital vein. A sterile phosphate buffer (pH = 7.4) containing radioligand was injected as a bolus over 2 s into the cubital vein. The cannula was then immediately flushed with a 10-mL saline solution. In each individual, the measurement was repeated after approximately 6 weeks.
The PET system used was ECAT Exact HR 47 (Siemens/CTI, Knoxville, TN, USA), with an in-plane and an axial resolution of 3.6 and 4.0 mm, respectively, full width at half maximum (FWHM). The radioactivity in the brain was measured continuously for 60 min using a pre-programmed sequence of […] (20 s × 9, 30 s × 6, 180 s × 5, 300 s × 5). […] The images were reconstructed with a Hanning filter (FWHM = 2 mm) in a matrix of 128 × 128 × 47 voxels, yielding a voxel size of 2.03 × 2.03 × 3.125 mm. Attenuation correction was done using transmission scan data obtained for each subject.
[^11C](R)-PK11195 binding to TSPO was quantified using kinetic compartment analyses with the metabolite-corrected arterial plasma curve as input function. Two compartment models (one- and two-tissue) were used to fit the model to the TACs. The fractional volume of blood present in the tissue volume and bolus time were estimated for each individual, each occasion, by fitting the whole brain TAC with a two-tissue compartment model.
The one-tissue compartment model (1TCM) describes one compartment which is a composite of free, non-specifically and specifically bound radioligands. The two rate constants, K1 and k2, describe the influx and efflux rates across the blood-brain barrier, respectively.
The two-tissue compartment model (2TCM) has been described in detail in the literature. The two-tissue compartments are defined as the radioactivity concentration of a nondisplaceable radioligand in the brain (CND) and the radioactivity concentration of a radioligand specifically bound to receptors (CB). In this model, four rate constants (K1, k2, k3 and k4) explain the time curves for radioligand in the brain. In short, the four rate constants were determined by curve fitting with a weighted non-linear least squares fitting technique with constraint-restricting parameters between 0 and 0.9. Each initial value for K1, k2, k3 and k4 was 0.5, 0.1, 0.5 and 0.5, respectively. The local minimum of the sum of the squared residuals was determined by iteration.
Regional [^11C](R)-PK11195 binding was expressed using the concept of the total distribution volume (VT), which is defined by the following equation, using kinetic constants obtained from 2TCM [16, 20, 21].
Specific [^11C](R)-PK11195 binding was expressed as binding potential relative to nondisplaceable binding (BPND) as follows:
The fractional volume of blood present in the tissue volume was determined for each individual, each occasion. It was obtained by fitting whole brain TAC with a 2TCM with six parameters (K1, k2, k3, k4, fractional blood volume (VB) and time shift between plasma input function and PET TAC (tbolus)) and parameters VB and tbolus subsequently applied for each brain region.
The reproducibility of two successive PET measurements was analysed by means of descriptive statistics (mean, range, SD, coefficient of variance (CV), difference in measurement (error in percent) and intra-class correlation coefficient (ICC)). The ICC was calculated from the between-subject and within-subject variations, using the expression: […]

[1] = putamen (R), BPND test-retest difference in measurements
[2] = thalamus (L), BPND test-retest difference in measurements
[3] = thalamus (R), BPND test-retest difference in measurements
[4] = thalamus, BPND test-retest difference in measurements
[5] = thalamus, VT (2TCM) test-retest
[6] = white matter, 1TCM, retest (2), individual subjects 1-6
[7] = white matter, 1TCM, retest (2), mean(SD/CV) of 6 subjects
[8] = white matter, 1TCM, test (1), individual subjects 1-6
[9] = white matter, 1TCM, test (1), mean(SD/CV) of 6 subjects
[10] = white matter, 2TCM, retest (2), individual subjects 1-6
[11] = white matter, 2TCM, retest (2), mean(SD/CV) of 6 subjects
[12] = white matter, 2TCM, test (1), individual subjects 1-6
[13] = white matter, 2TCM, test (1), mean(SD/CV) of 6 subjects
[14] = white matter, BPND test-retest difference in measurements
[15] = white matter, VT (2TCM) test-retest
[16] = whole brain, BPND test-retest difference in measurements
[17] = whole brain, VT (2TCM) test-retest

TSPO, sequence (P30536 whole entry): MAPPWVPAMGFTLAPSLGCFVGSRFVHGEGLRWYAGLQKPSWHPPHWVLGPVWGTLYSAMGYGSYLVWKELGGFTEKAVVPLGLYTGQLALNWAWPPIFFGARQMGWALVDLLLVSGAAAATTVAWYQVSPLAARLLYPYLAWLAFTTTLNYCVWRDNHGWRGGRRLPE

With CC[C@@H](C)N([11CH3])C(=O)c1cc2ccccc2c(-c2ccccc2Cl)n1 [[^11C](R)-PK11195] the “BPND (k3/k4) Mean” value (putamen (R), 2TCM) was 1.41, the “BPND (k3/k4) Retest” value (putamen (R), 2TCM) was 1.56(0.73) and the “BPND (k3/k4) Test” value (putamen (R), 2TCM) was 1.27(0.48). The ICC (putamen (R)) was -0.01, the “Error % mean(SD)” value [1] was -32(72) % and the “Error range (%)” value [1] was -145 to 34%. The “BPND (k3/k4) Mean” value (putamen, 2TCM) was 1.38, the “BPND (k3/k4) Retest” value (putamen, 2TCM) was 1.50(0.69) and the “BPND (k3/k4) Test” value (putamen, 2TCM) was 1.20(0.28). For the same compound, the ICC (putamen) was 0.09, the “Error range (%)” value (putamen, BPND test-retest difference in measurements) was -138 to 21% and the “Error % mean(SD)” value (putamen, VT (2TCM) test-retest) was 17(38) %. For the same compound, the “Error range (%)” value (putamen, VT (2TCM) test-retest) was -32 to 78%, the “VT (2TCM)” value (putamen, retest) was 0.93(0.19) and the “VT (2TCM)” value (putamen, test) was 0.83(0.21). For the same compound, the “BPND (k3/k4) Mean” value (thalamus (L), 2TCM) was 1.26, the “BPND (k3/k4) Retest” value (thalamus (L), 2TCM) was 1.42(0.59) and the “BPND (k3/k4) Test” value (thalamus (L), 2TCM) was 1.11(0.25). For the same compound, the ICC (thalamus (L)) was 0.17, the “Error % mean(SD)” value [2] was -32(64) % and the “Error range (%)” value [2] was -136 to 39%. For the same compound, the “BPND (k3/k4) Mean” value (thalamus (R), 2TCM) was 1.60, the “BPND (k3/k4) Retest” value (thalamus (R), 2TCM) was 1.86(0.56) and the “BPND (k3/k4) Test” value (thalamus (R), 2TCM) was 1.34(0.43). The ICC (thalamus (R)) was 0.16, the “Error % mean(SD)” value [3] was -46(50) % and the “Error range (%)” value [3] was -136 to 17%. For the same compound, the “BPND (k3/k4) Mean” value (thalamus, 2TCM) was 1.36, the “BPND (k3/k4) Retest” value (thalamus, 2TCM) was 1.53(0.45) and the “BPND (k3/k4) Test” value (thalamus, 2TCM) was 1.19(0.28). For the same compound, the ICC (thalamus) was 0.57, the “Error % mean(SD)” value [4] was -29% and -29(33) % and the “Error range (%)” value [4] was -82 to 9%. The “Error % mean(SD)” value [5] was -6(29) %, the “Error range (%)” value [5] was -47 to 40% and the “VT (2TCM)” value (thalamus, retest) was 0.80 (0.23). For the same compound, the “VT (2TCM)” value (thalamus, test) was 0.90(0.27), the K1 [6] was 0.075 mL/cc/min and 0.027 mL/cc/min and 0.032 mL/cc/min and 0.033 mL/cc/min and 0.042 mL/cc/min and 0.046 mL/cc/min and the k2 [6] was 0.085 min⁻¹ and 0.066 min⁻¹ and 0.078 min⁻¹ and 0.064 min⁻¹ and 0.071 min⁻¹ and 0.089 min⁻¹. For the same compound, the K1 [7] was 0.043(0.017/39) mL/cc/min, the k2 [7] was 0.076(0.010/13) min^-1 and the K1 [8] was 0.049 mL/cc/min and 0.027 mL/cc/min and 0.048 mL/cc/min and 0.030 mL/cc/min and 0.055 mL/cc/min and 0.044 mL/cc/min. For the same compound, the k2 [8] was 0.066 min⁻¹ and 0.081 min⁻¹ and 0.072 min⁻¹ and 0.086 min⁻¹ and 0.071 min⁻¹, the K1 [9] was 0.042(0.011/26) mL/cc/min and the k2 [9] was 0.074(0.008/11) min^-1. The “BPND (k3/k4) Mean” value (white matter, 2TCM) was 1.84, the “BPND (k3/k4) Retest” value (white matter, 2TCM) was 1.78(0.42) and the “BPND (k3/k4) Test” value (white matter, 2TCM) was 1.90(0.42). For the same compound, the K1 [10] was 0.060 mL/cc/min and 0.097 mL/cc/min and 0.035 mL/cc/min and 0.045 mL/cc/min and 0.039 mL/cc/min and 0.051 mL/cc/min, the k2 [10] was 0.206 min⁻¹ and 0.209 min⁻¹ and 0.164 min⁻¹ and 0.223 min⁻¹ and 0.126 min⁻¹ and 0.144 min⁻¹ and the k3 [10] was 0.042 min⁻¹ and 0.061 min⁻¹ and 0.041 min⁻¹ and 0.046 min⁻¹ and 0.028 min⁻¹ and 0.033 min⁻¹. The k4 [10] was 0.025 min⁻¹ and 0.045 min⁻¹ and 0.020 min⁻¹ and 0.019 min⁻¹ and 0.018 min⁻¹ and 0.022 min⁻¹, the K1 [11] was 0.055(0.023/42) mL/cc/min and the k2 [11] was 0.179(0.040/22) min^-1. The k3 [11] was 0.042(0.011/26) min^-1, the k4 [11] was 0.025(0.010/40) min^-1 and the K1 [12] was 0.061 mL/cc/min and 0.032 mL/cc/min and 0.035 mL/cc/min and 0.067 mL/cc/min and 0.056 mL/cc/min. The k2 [12] was 0.154 min⁻¹ and 0.124 min⁻¹ and 0.184 min⁻¹ and 0.138 min⁻¹ and 0.165 min⁻¹ and 0.176 min⁻¹, the k3 [12] was 0.043 min⁻¹ and 0.024 min⁻¹ and 0.034 min⁻¹ and 0.037 min⁻¹ and the k4 [12] was 0.026 min⁻¹ and 0.019 min⁻¹ and 0.014 min⁻¹ and 0.012 min⁻¹ and 0.030 min⁻¹. For the same compound, the K1 [13] was 0.052(0.015/29) mL/cc/min, the k2 [13] was 0.157(0.02/13) min^-1 and the k3 [13] was 0.034(0.009/26) min^-1. For the same compound, the k4 [13] was 0.020(0.007/35) min^-1, the ICC (white matter) was 0.73 and the “Error % mean(SD)” value [14] was -4% and -8% and -8(18) %. The “Error range (%)” value [14] was -25 to 21%, the “Error % mean(SD)” value [15] was -9(25) % and the “Error range (%)” value [15] was -42 to 28%. For the same compound, the “VT (2TCM)” value (white matter, retest) was 0.88 (0.19), the “VT (2TCM)” value (white matter, test) was 0.99(0.17) and the “BPND (k3/k4) Mean” value (whole brain, 2TCM) was 1.67. For the same compound, the “BPND (k3/k4) Retest” value (whole brain, 2TCM) was 1.68(0.35), the “BPND (k3/k4) Test” value (whole brain, 2TCM) was 1.65(0.33) and the ICC (whole brain) was 0.57. For the same compound, the “Error % mean(SD)” value [16] was 4% and -4(19) %, the “Error range (%)” value [16] was -25 to 22% and the “Error % mean(SD)” value [17] was -7(20) %. The “Error range (%)” value [17] was -38 to 21%, the “VT (2TCM)” value (whole brain, retest) was 0.75 (0.16) and the “VT (2TCM)” value (whole brain, test) was 0.82(0.18).
